# From PMC10066365, “Nemacol is a small molecule inhibitor of C. elegans vesicular acetylcholine transporter with anthelmintic potential” (Nature Communications, 2023)
# Several values for one entry are separate records, joined by “and”; a condition that tells them apart may be missing. Equal values may be shown once. Read-outs that look alike come from different tables or passages of the source.
# Experiments:
# [1] = test system: Haemonchus contortus; test: Haemonchus contortus L3 Migration Trap Assay (motility, 24 h exposure); conditions: hc weybridge, motilityTrap24hNoWash, 24 h, single wells
# [2] = test system: C. elegans; test: C. elegans motor phenotype scoring on solid media (Punc/jerky-unc, coiled, paralyzed), wild-type young adults; format: in vivo, Caenorhabditis elegans; conditions: for atypical locomotion (number of animals) / coiled (number of animals) / no phene (number of animals) / paralyzed (number of animals): young adults, 20 animals per trial, single technical replicate
# [3] = target: T1, rat VAChT (Rattus norvegicus, UniProt Q62666); test: [3H]Vesamicol competitive radioligand binding, PC12 cells expressing ratVAChT
# T1 construct: expressed in transfected cells; host or cells: rat PC12 (PC12 A123.7) cells, stably transfected; shared by Dr. Ali Roghani (Texas Tech University)
# T1 sequence (Q62666 1-530): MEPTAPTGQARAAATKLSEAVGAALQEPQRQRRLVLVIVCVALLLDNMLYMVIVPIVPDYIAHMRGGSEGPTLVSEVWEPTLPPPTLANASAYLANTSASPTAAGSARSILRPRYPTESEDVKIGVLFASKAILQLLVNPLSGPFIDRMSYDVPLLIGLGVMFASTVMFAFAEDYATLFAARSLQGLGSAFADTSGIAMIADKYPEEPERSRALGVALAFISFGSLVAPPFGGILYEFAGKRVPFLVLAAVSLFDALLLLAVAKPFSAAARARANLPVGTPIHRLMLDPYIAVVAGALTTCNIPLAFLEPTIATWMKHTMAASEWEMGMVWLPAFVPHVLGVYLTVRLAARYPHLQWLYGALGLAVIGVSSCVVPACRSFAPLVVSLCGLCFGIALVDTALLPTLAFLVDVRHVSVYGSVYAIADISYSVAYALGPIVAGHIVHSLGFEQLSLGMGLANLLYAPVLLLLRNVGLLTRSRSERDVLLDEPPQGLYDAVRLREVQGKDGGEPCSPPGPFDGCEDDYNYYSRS
# [4] = test system: Dirofilaria immitis microfilariae; test: Dirofilaria immitis microfilariae immobility assay (DiroImager, 72 h); conditions: Dirofilaria immitis microfilariae
# Summary of the method: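 Motility read after 72 h drug exposure with an image-based high-throughput plate imager, 1% DMSO medium serving as negative control. Missouri-isolate microfilariae, roughly 250 per well, freshly purified and cultured in supplemented RPMI 1640.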
# [5] = test system: Dirofilaria immitis L3/L4; test: Dirofilaria immitis L3/L4 motility assay (DiroImager, 72 h); conditions: Dirofilaria immitis L4
# [6] = test system: Pristionchus pacificus; test: Pristionchus pacificus motor disruption dose-response on solid media, 1 h; conditions: for mean % any phene: any phenotype (coiled, jerky-Unc or paralyzed) at one hour, mean of three biological replicates; for rep 1 atypical locomotion / rep 1 coiled / rep 1 no phene / rep 1 paralyzed / rep 2 atypical locomotion / rep 2 coiled / rep 2 no phene / rep 2 paralyzed / rep 3 atypical locomotion / rep 3 coiled / rep 3 no phene / rep 3 paralyzed: count of 20 animals per trial, one hour
smiles,measurement,setting,value
c1ccc(N2CCN(CC3CCCC3)CC2)cc1 [Nemacol_62],efficacy,[1]; dose 5 µM,0
same,efficacy,[1]; dose 20 µM,0
same,efficacy,[1]; dose 80 µM,0
c1ccc(N2CCN(CC3CCCC3)CC2)cc1 [Nemacol-62],atypical locomotion (number of animals),"[2]; 3.75uM, one hour",0 and 2
same,coiled (number of animals),"[2]; 3.75uM, one hour",0 and 1
same,no phene (number of animals),"[2]; 3.75uM, one hour",20 and 17 and 18
same,paralyzed (number of animals),"[2]; 3.75uM, one hour",0
same,"any phene: mean % fraction of young adults exhibiting any phenotype (coiled, jerky-Unc or paralyzed)","[2]; 3.75uM, one hour, mean of three biological replicates",4.167%
same,atypical locomotion (number of animals),"[2]; 15uM, one hour",13 and 10 and 6 and 17
same,coiled (number of animals),"[2]; 15uM, one hour",0 and 1 and 4 and 3
same,no phene (number of animals),"[2]; 15uM, one hour",5 and 8 and 13 and 10 and 0
same,paralyzed (number of animals),"[2]; 15uM, one hour",2 and 0 and 4
same,atypical locomotion (number of animals),"[2]; 60uM, one hour",0 and 4 and 2 and 1
same,coiled (number of animals),"[2]; 60uM, one hour",12 and 8 and 15 and 17 and 7 and 5
same,no phene (number of animals),"[2]; 60uM, one hour",0
same,paralyzed (number of animals),"[2]; 60uM, one hour",8 and 3 and 2 and 9 and 14
same,EC50,"[2]; Caenorhabditis elegans, any motor phenotype after 1 h on solid media, ± 95% CI, read-out: C. elegans - motor disruption EC50",11.2 ± 4.4 µM
same,Ki,"[3]; [3H]Vesamicol binding, PC12, experiment 1, read-out: expt 1 Ki (M) vs. rat VAChT (PC12)",2.34e-06 M
same,Ki,"[3]; [3H]Vesamicol binding, PC12, experiment 2, read-out: expt 2 Ki (M) vs. rat VAChT (PC12)",3.34e-06 M
same,Ki,"[3]; [3H]Vesamicol binding, rat VAChT (PC12), mean of 2-3 experiments, read-out: mean Ki",2.84e-06 M
same,Ki,"[3]; [3H]Vesamicol displacement, mean, read-out: ratVAChT Ki",2.84e-06 M
same,"% effect (motility), DIROIM MF",[4]; 0.016 µM,0%
same,"% effect (motility), DIROIM MF",[4]; 0.08 µM,0%
same,"% effect (motility), DIROIM MF",[4]; 0.4 µM,0%
same,"% effect (motility), DIROIM MF",[4]; 2 µM,0%
same,"% effect (motility), DIROIM MF",[4]; 10 µM,0%
same,"% effect (motility), DIROIM L4",[5]; 10 µM,5%
same,"% effect (motility), DIROIM L4",[5]; 50 µM,11%
same,EC50,"[6]; Pristionchus pacificus, 1 h, read-out: P. pacificus motor disruption EC50",35.2 ± 7.5 µM
same,mean % any phene,[6]; conc 3.75,0%
same,rep 1 atypical locomotion,[6]; conc 3.75,0
same,rep 1 coiled,[6]; conc 3.75,0
same,rep 1 no phene,[6]; conc 3.75,20
same,rep 1 paralyzed,[6]; conc 3.75,0
same,rep 2 atypical locomotion,[6]; conc 3.75,0
same,rep 2 coiled,[6]; conc 3.75,0
same,rep 2 no phene,[6]; conc 3.75,20
same,rep 2 paralyzed,[6]; conc 3.75,0
same,rep 3 atypical locomotion,[6]; conc 3.75,0
same,rep 3 coiled,[6]; conc 3.75,0
same,rep 3 no phene,[6]; conc 3.75,20
same,rep 3 paralyzed,[6]; conc 3.75,0
same,mean % any phene,[6]; conc 15,3.333%
same,rep 1 coiled,[6]; conc 15,0
same,rep 1 no phene,[6]; conc 15,20 and 19
same,rep 1 paralyzed,[6]; conc 15,0
same,rep 2 atypical locomotion,[6]; conc 15,2 and 1
same,rep 2 coiled,[6]; conc 15,0
same,rep 2 no phene,[6]; conc 15,18 and 19
same,rep 2 paralyzed,[6]; conc 15,0
same,rep 3 atypical locomotion,[6]; conc 15,0
same,rep 3 coiled,[6]; conc 15,0
same,rep 3 no phene,[6]; conc 15,20
same,rep 3 paralyzed,[6]; conc 15,0
same,mean % any phene,[6]; conc 60,89.1667%
same,rep 1 atypical locomotion,[6]; conc 60,5 and 6
same,rep 1 paralyzed,[6]; conc 60,11 and 9
same,rep 2 atypical locomotion,[6]; conc 60,14 and 15
same,rep 2 coiled,[6]; conc 60,2 and 3
same,rep 2 no phene,[6]; conc 60,0
same,rep 2 paralyzed,[6]; conc 60,4 and 2
same,rep 3 atypical locomotion,[6]; conc 60,15 and 13
same,rep 3 no phene,[6]; conc 60,5 and 3
